# Measured values as given in patent US20220193126A1, “METHODS OF TREATING IMBALANCE OF PLASMA LIPIDS LEVEL AND FATTY LIVER WITH M2C MACROPHAGES” (National Pingtung University of Science and Technology, priority 2020, published 2022).
# Key:
# [1] = tested on: bone marrow derived macrophages (BMDM); test: Induction of M2C macrophage polarization by baicalin (morphology, microscope images); assay type: cell-based, mice (C57BL/6J); conditions: 50 μM Baicalin for 24 hours, vs placebo-treated group (M-CSF) spindle shape
# Protocol: The bone marrow was flushed out from the femurs of mice (C57BL/6J, 8-week-old to 20-week-old, from National Laboratory Animal Center in Taipei, Taiwan) with phosphate-buffered saline (PBS) containing BSA 0.5%. The peripheral blood or bone marrow flushing fluid were layered with Ficoll-Hypaque (GE Healthcare, Uppsala, Sweden) and centrifuged at 400×g for 40 minutes at 18° C. to isolate the mononuclear cell of peripheral blood and bone marrow. The interphase layer containing mononuclear cell was washed with PBS and centrifuged for 10 minutes at 100×g, 18° C. twice. Plate mononuclear cells in dish culture with RPM 1640 supplemented with 10% FBS (fetal bovine serum) and 50 ng/ml recombinant mouse M-CSF (PeproTech, British) at 37° C. and 5% CO2 for 7 days to induce the mononuclear cells to differentiate into macrophage. On the next day of the 7th day of M-CSF treatment, 5×10^5 cells of bone marrow derived macrophages (BMDM) cells were plated in RPMI 1640 (10% FBS) and incubated overnight. After overnight incubation, the BMDM cells were incubated in RPMI 1640 (10% FBS) supplemented with 50 μM Baicalin for 24 hours to induce the BMDM cells to polarize into […] macrophage.
# MERTK = test: Flow cytometry confirmation of MERTK expression on M2C macrophages; assay type: cell-based, mouse; conditions: baicalin-treated vs placebo-treated macrophages
# Protocol: The bone marrow was flushed out from the femurs of mice (C57BL/6J, 8-week-old to 20-week-old, from National Laboratory Animal Center in Taipei, Taiwan) with phosphate-buffered saline (PBS) containing BSA 0.5%. The peripheral blood or bone marrow flushing fluid were layered with Ficoll-Hypaque (GE Healthcare, Uppsala, Sweden) and centrifuged at 400×g for 40 minutes at 18° C. to isolate the mononuclear cell of peripheral blood and bone marrow. The interphase layer containing mononuclear cell was washed with PBS and centrifuged for 10 minutes at 100×g, 18° C. twice. Plate mononuclear cells in dish culture with RPM 1640 supplemented with 10% FBS (fetal bovine serum) and 50 ng/ml recombinant mouse M-CSF (PeproTech, British) at 37° C. and 5% CO2 for 7 days to induce the mononuclear cells to differentiate into macrophage. On the next day of the 7th day of M-CSF treatment, 5×10^5 cells of bone marrow derived macrophages (BMDM) cells were plated in RPMI 1640 (10% FBS) and incubated overnight. […]
# 1×10^6 cells of the M2C macrophages induced by baicalin were analyzed by flow cytometry to confirm whether the M2C macrophages express MERTK. Fluorescence-labelled anti-mouse antibodies (Biolegend, the U.S.A.), FITC-anti-CD 11b and PE-anti-MERTK, are used in the analysis. […] After removing supernatant, the sample was dissolved in 1 ml of PBS and analyzed by flow cytometry.
compound,measurement,setting,value
O=C(O)[C@H]1O[C@@H](Oc2cc3oc(-c4ccccc4)cc(=O)c3c(O)c2O)[C@H](O)[C@@H](O)[C@@H]1O [baicalin],morphology of the macrophages,[1],basically round shape
same,"average MERTK expression level on single cell (mean fluorescence intensity, MFI)",MERTK,significantly enhanced
